Experimental data reported in the supplement of paper PMC11061612.

How the values were obtained:
[1] = tested on: SNU-5 (Gastric Carcinoma); experiment: Bliss excess, mean over the matrix (fraction); higher = more synergy
How it was run: (§1)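 Cell lines grown in DMEM/F12 or RPMI with 10% FBS were plated in 1536-well plates and held 24 hours at 37°C, 5% CO2 before 72 hours of exposure to two-drug dose matrices, with DMSO typically at 0.2%. CellTiter-Glo 2.0 luminescence gave viability, which was converted to inhibition. Vehicle wells were set to 0 and blank wells to 1. Combination Emax is the second-highest inhibition in the matrix, and Bliss excess is the observed combination effect minus the expected EA + EB − EA·EB, where EA and EB are the single-agent effects.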

[2] = tested on: LNCaP-Clone-FGC (Prostate Carcinoma); experiment: as above
How it was run: as §1

[3] = tested on: Calu-3 (Lung Adenocarcinoma); experiment: as above
How it was run: as §1

AGS (Gastric Carcinoma) = experiment: as above
How it was run: as §1

[4] = tested on: LB831-BLC (Bladder Carcinoma); experiment: as above
How it was run: as §1

[5] = tested on: HCC-78 (Lung Adenocarcinoma); experiment: as above
How it was run: as §1

[6] = tested on: SNU-5 (Gastric Carcinoma); experiment: combination Emax (second highest fraction inhibited in the dose matrix, 72 h); higher = more inhibition; extreme values may be limits of the assay
How it was run: as §1

[7] = tested on: HCC1806 (Breast Carcinoma); experiment: as above
How it was run: as §1

[8] = tested on: CAL-148 (Breast Carcinoma); experiment: as above
How it was run: as §1

[9] = tested on: UM-UC-3 (Bladder Carcinoma); experiment: as above
How it was run: as §1

[10] = tested on: RO82-W-1 (Thyroid Gland Carcinoma); experiment: as above
How it was run: as §1

NB10 (Neuroblastoma) = experiment: as above
How it was run: as §1

[11] = tested on: LB831-BLC (Bladder Carcinoma); experiment: as above
How it was run: as §1

[12] = tested on: KURAMOCHI (Ovarian Carcinoma); experiment: as above
How it was run: as §1

[13] = tested on: KP-1N (Pancreatic Carcinoma); experiment: as above
How it was run: as §1

42-MG-BA (Glioblastoma) = experiment: as above
How it was run: as §1

NOS-1 (Osteosarcoma) = experiment: as above
How it was run: as §1

[14] = tested on: Ramos-2G6-4C10 (Burkitt's Lymphoma); experiment: as above
How it was run: as §1

[15] = tested on: EC-GI-10 (Esophageal Squamous Cell Carcinoma); experiment: as above
How it was run: as §1

[16] = tested on: HCC-78 (Lung Adenocarcinoma); experiment: as above
How it was run: as §1
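Wherever Bliss excess, mean over the matrix is given: after 72 h of two-drug dosing.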

| Structure (SMILES) | Bliss excess [1] | Bliss excess [2] | Bliss excess [3] | Bliss excess (AGS (Gastric Carcinoma)) | Bliss excess [4] | Bliss excess [5] | combination Emax [6] | combination Emax [7] | combination Emax [8] | combination Emax [9] | combination Emax [10] | combination Emax (NB10 (Neuroblastoma)) | combination Emax [11] | combination Emax [12] | combination Emax [13] | combination Emax (42-MG-BA (Glioblastoma)) | combination Emax (NOS-1 (Osteosarcoma)) | combination Emax [14] | combination Emax [15] | combination Emax [16] |
| --- | --- | --- | --- | --- | --- | --- | --- | --- | --- | --- | --- | --- | --- | --- | --- | --- | --- | --- | --- | --- |
| CC1(C)CCC(CN2CCN(c3ccc(C(=O)NS(=O)(=O)c4ccc(NCC5CCOCC5)c([N+](=O)[O-])c4)c(Oc4cnc5[nH]ccc5c4)c3)CC2)=C(c2ccc(Cl)cc2)C1 [Venetoclax] + Cc1cc2ncnn2cc1Nc1ncc2c(n1)n(C1CCOCC1)c(=O)n2C [AZD7648] (first compound max 1 µM, 7x7, partner max 10 µM) | -0.0063 | -0.0963 | 0.0113 | -0.0505 | -0.0497 | -0.017 | 0.325 | 0.172 | 0.447 | 0.139 | 0.224 | 0.246 | 0.241 | 0.477 | 0.108 | 0.43 | 0.244 | 0.289 | 0.436 | 0.243 |
| Cc1nc(Nc2ncc(C(=O)Nc3c(C)cccc3Cl)s2)cc(N2CCN(CCO)CC2)n1 [Dasatinib] + CC(=O)Nc1cccc(-n2c(=O)n(C3CC3)c(=O)c3c(Nc4ccc(I)cc4F)n(C)c(=O)c(C)c32)c1 [Trametinib] (first compound max 2 µM, 7x7, partner max 1 µM) | -0.0708 | -0.0361 | 0.0074 | 0.0433 | -0.0529 | -0.0361 | 0.654 | 0.624 | 0.254 | 0.685 | 0.436 | 0.658 | 0.493 | 0.937 | 0.478 | 0.971 | 0.921 | 0.238 | 0.503 | 0.347 |
| Cc1c2c(nn1C)CSCc1cc(n(C)n1)CSc1cc(c3ccccc3c1)OCCCc1c(C(=O)O)n(C)c3c-2c(Cl)ccc13 [AZD5991] + Cc1cc2ncnn2cc1Nc1ncc2c(n1)n(C1CCOCC1)c(=O)n2C [AZD7648] (first compound max 1 µM, 7x7, partner max 10 µM) | 0.0269 | -0.0423 | -0.0115 | -0.037 | -0.034 | -0.016 | 0.347 | 0.515 | 0.45 | 0.226 | 0.376 | 0.258 | 0.251 | 0.331 | 0.279 | 0.988 | 0.895 | 1 | 0.564 | 0.339 |
| Cc1cc2ncnn2cc1Nc1ncc2c(n1)n(C1CCOCC1)c(=O)n2C [AZD7648] + O=C(c1cc(Cc2n[nH]c(=O)c3ccccc23)ccc1F)N1CCN(C(=O)C2CC2)CC1 [Olaparib] (first compound max 10 µM, 7x7, partner max 10 µM) | -0.0316 | -0.0049 | -0.0351 | -0.007 | 0.0067 | -0.0133 | 0.374 | 0.142 | 0.255 | 0.145 | 0.251 | 0.426 | 0.253 | 0.16 | 0.257 | 0.464 | 0.0915 | 0.169 | 0.341 | 0.242 |
| NC1(C(=O)N[C@@H](CCO)c2ccc(Cl)cc2)CCN(c2ncnc3[nH]ccc23)CC1 [Capivasertib] + C[C@@H]1COCCN1C2=NC(=NC(=C2)C3(CC3)[S@](=N)(=O)C)C4=C5C=CNC5=NC=C4 [AZD6738] (first compound max 10 µM, 7x7, partner max 10 µM) | -0.0375 | 0.0099 | -0.0381 | -0.0449 | -0.0161 | -0.0239 | 0.919 | 0.947 | 0.986 | 0.53 | 0.215 | 0.811 | 0.539 | 0.535 | 0.323 | 0.775 | 0.68 | 0.922 | 0.7 | 0.721 |
| Cc1c2c(nn1C)CSCc1cc(n(C)n1)CSc1cc(c3ccccc3c1)OCCCc1c(C(=O)O)n(C)c3c-2c(Cl)ccc13 [AZD5991] + CN(C)CCCOc1ccc(-c2ccc3ncc4c(c3c2)n(C2CCOCC2)c(=O)n4C)cn1 [AZD0156] (first compound max 1 µM, 7x7, partner max 1 µM) | 0.0154 | -0.0275 | 0.0066 | -0.0258 | 0.0072 | -0.0059 | 0.255 | 0.833 | 0.417 | 0.211 | 0.265 | 0.273 | 0.229 | 0.359 | 0.229 | 0.986 | 0.753 | 0.988 | 0.747 | 0.211 |
| COc1nnc2ccc(N3CCC(c4ccc(OCCN5CCN(C)C(=O)[C@H]5C)cc4)CC3)nn12 [AZD5153] + CCN(CCO)CCCOc1ccc2c(Nc3cc(CC(=O)Nc4cccc(F)c4)[nH]n3)ncnc2c1 [AZD2811] (first compound max 1 µM, 7x7, partner max 1 µM) | -0.0501 | -0.0081 | -0.0303 | 0.0294 | -0.0647 | -0.0314 | 0.506 | 0.676 | 0.927 | 0.459 | 0.402 | 0.571 | 0.546 | 0.738 | 0.542 | 0.783 | 0.765 | 0.666 | 0.425 | 0.489 |
